The values that follow come from US9315532B2, “Fatty acid carbohydrate hybrid molecules as therapeutic agents and methods thereof” (The Johns Hopkins University, priority 2005, dated 2016).

What all share (format): cell-based, human
For experiment [1], the system named is Jurkat cells. As to the kind of experiment: Toxicity and growth inhibition assays (cell counts on days 3, 5 and 15). The procedure: For cell culture studies, But4ManNAc (1) (50) was used as a mixture of anomers (α/β=10/90), But4GlcNAc (2) as pure α-anomer and But5Man (3) as pure β-anomer (It is noteworthy that the intracellular hydrolysis of butyrate esters makes the anomeric configuration less relevant in these studies and we found similar cellular effects between the α- and β-anomers in long term toxicity). Stock solutions of the sugar analogs were made in ethanol at concentrations of 10 mM and 50 mM. In the case of cells growing in suspension the solutions of 1-4 (or an ethanol control at an equivalent volume) were coated onto dishes and the ethanol was allowed to evaporate prior to plating. Unless otherwise noted, throughout this study Jurkat cells (Clone E-6, ATCC, Manassas, Va.) were cultured in RPMI 1640 medium supplemented with 300 mg/L glutamine, 5.0% fetal bovine serum (HyClone, Logan, Utah) and 1.0% of a 100× dilution of a pen/strep stock solution containing penicillin (100 units/mL) and streptomycin (100 μg/mL); HL-60 cells (ATCC, Manassas, Va.) were cultured in RPMI 1640 medium supplemented with 10% FBS and pen/strep; and AD293 (HEK) cells (Stratagene, La Jolla, Calif.) were grown in DMEM medium with 10% FBS and pen/strep. In all cases, cells were incubated in a standard 37° C. in a 5.0% CO2, water-saturated environment. Cell counting was performed with a Beckman-Coulter Z2 particle counter and hemacytometer.
Solutions of the analogs in EtOH (10 mM stock) were coated onto 24-well plates at a range of concentrations from 0-320 μM and ethanol was allowed to evaporate. Jurkat cells (1.0×10^5 cells) in 0.5 mL of medium were plated in each well (day 0). On days 3 and 5, fresh medium (1.0 mL) was added to each well. Cell cultures were mixed by gentle pipetting and 100 μL of cell suspension was taken from each well and counted. On days 7, 9, 11, 13 and 15, 1.0 mL of cell suspension was removed from each well after thorough mixing and fresh medium (1.0 mL) was added. Cells were counted on day 15 and the cell density was plotted as a percentage of control (as was done for cell counts from days 3 and 5).

The subject of the next experiment is AD293 (HEK) cells. The experiment is described as follows: Morphological changes / toxicity in AD293 (HEK) cells. The procedure:
(§1) The studies on morphological changes induced by sodium butyrate (5) and But4ManNAc (1) were performed following a reported procedure (45). Briefly, HeLa cells (200,000 cells per well in a 6-well plate) were plated and allowed to form monolayers. After 24 h, the supernatant was aspirated, fresh medium (4.0 mL) was added and treated with either ethanol (20 μL (0.5%), control), 5 (5.0 mM), or 1 (250 μM). For the AD 293 (HEK) cells 2.0×10^6 cells in 10 mL of medium (100 mm tissue culture dishes) were plated and treated, immediately after plating, with either ethanol (50 μL, control), 5 (5.0 mM), or 1 (250 μM). Images were acquired at various time intervals under bright field using a Nikon Eclipse TE200 inverted microscope equipped with a DXM 1200 digital camera.

Experiment [2] has as its system Jurkat cells. As to the kind of experiment: Flow cytometry analysis of cell cycle status (PI/RNase A). On the procedure: The cell cycle arrest induced by butyrate analogs was studied following the standard protocol (49). Briefly, Jurkat cells (2.3×10^5 cells/mL) were incubated with various concentrations of 1 (0, 25, 50, 75, 100, 150 and 200 μM); 2 (200 μM); 3 (200 μM); and 4 (200 μM) for five days. The cells were then harvested, counted, washed twice with PBS, re-suspended in PBS (500 μL), added to a cold solution of 78% aqueous ethanol (4.5 mL) using a glass Pasteur pipette and kept at 2.0° C. for at least 24 h. The fixed cells were centrifuged twice to remove the ethanol completely, re-suspended in propidium iodide (PI)/ribonuclease A (RNase A) staining buffer (BD Pharmingen, Catalog No. 550825, San Diego, Calif.) (500 μL for 1.0×10^6 cells), incubated at 37° C. for 15 min and analyzed by flow cytometry. The cellular aggregates were excluded from single cell populations using an area-width plot (FL2—PT fluorescence) for the cell cycle status determination. At least 10,000 gated events were counted for each determination.
Jurkat cells (2.5×10^5 cells/mL) were incubated with either ethanol (0.2%) or 1 (100 μM or 200 μM). Aliquots of cell suspensions were taken on day 0 and days 2-6, washed with PBS (twice) and fixed in 75% ethanol at 2.0° C. for at least 48 h. The cells were stained with PI/RNase staining buffer and analyzed by flow cytometry as given above.

In the next experiment the test system is p21WAF1. As to the kind of experiment: Endogenous p21WAF1 assay (anti-p21WAF1 antibody, flow cytometry) in Jurkat cells. On the procedure: Endogenous expression of p21^WAF1 was detected following a reported procedure (58) with minor modifications. Jurkat cells (5.0×10^6 cells in 10 mL medium) were incubated with either ethanol or 1 (250 μM or 5 (2.5 mM). On a daily basis, aliquots of cells (˜1.0×10^6 per sample) were taken, washed with PBS (2×1.0 mL), fixed with Reagent A (Fix and Perm Kit, Caltag Laboratories, CA, Cat. No. GAS-003) for 10 min at room temperature, washed with washing buffer (PBS containing 5.0% FBS, 0.1% NaN3), re-suspended in 95% v/v methanol and kept on ice. After 30 min, cells were again washed with washing buffer and incubated with FITC-conjugated anti-p21^WAF1 antibody (Calbiochem, San Diego, Calif., Cat. No. OP64F) at 2.0 μg/mL in Reagent B (100 μL) (Fix and Perm Kit, Caltag Laboratories) for 1.0 h at room temperature in the dark. Finally, cells were re-suspended in washing buffer (500 μL) and analyzed by flow cytometry. Three replicate samples were taken for each condition and 10,000 events were counted for each sample.

The subject of another experiment is caspase-3 activity. The experiment is described as follows: Caspase-3 activity assay in Jurkat cells. As to conditions: for increase of caspase-3 activity: 48 h. The text has this: Such results are consistent with those expected by the compounds herein.
The test system of the next experiment is HeLa cells. The experiment is described as follows: Morphological changes to HeLa cells. The procedure: as §1

Structures are written as SMILES. Entries after “also recorded” stand apart in the source; their conditions may differ.

Regarding `CCCC(=O)OC[C@H]1OC(OC(=O)CCC)[C@@H](NC(C)=O)[C@@H](OC(=O)CCC)[C@@H]1OC(=O)CCC` (stereo partly drawn) [compound 1, 2-Acetylamino-2-deoxy-1,3,4,6-tetra-O-butanoyl-α,β-D-mannopyranoside], the “long term growth characteristics (day 15)” value with Jurkat cells [1] (Jurkat cells, 0-320 μM, day 15) is “induces both growth arrest and cell death”. In the experiment on Jurkat cells [1] (Jurkat cells, day 15), the “concentration at which essentially all cells died by day 15” value was no less than 80 µM. The range for bioactivity with Jurkat cells [1] (ManNAc and butyrate combined in the same molecule) is 50 to 100 µM. Moreover, the “apoptosis / toxicity in AD293 cells” value in the experiment on AD293 (HEK) cells (2 days, 1 at 250 μM, 5 at 5.0 mM) is on record as “considerable degree of apoptosis; also recorded: toxicity”. Further, the “fold lower concentration for cellular responses than sodium n-butyrate” value in the experiment with AD293 (HEK) cells (AD293 cells) and in the experiment on HeLa cells (HeLa cells) was roughly 20 × each time. Besides, the “cell cycle status at lower concentrations” value in the experiment with Jurkat cells [2] (Jurkat cells, 0-75 μM, 5 days) was “stepwise decrease in G0/G1 accumulation with a concomitant increase in cells at the G2/M stage”. In addition, the “population of apoptotic cells (DNA content)” value with Jurkat cells [2] (Jurkat cells, 0-200 μM, five days) was “dose dependent increase in population of apoptotic cells”. Also, the “cell cycle status, time course” value in the experiment on Jurkat cells [2] (Jurkat cells, 100 μM, until day 6) was “strong cell cycle inhibition at the G2/M stage”; with Jurkat cells [2] (Jurkat cells, 200 μM), “accumulated more rapidly at the G2/M stage”. For the same compound, the “cell cycle status / apoptosis” value with Jurkat cells [2] (Jurkat cells, 200 μM, 5 days) is given as “majority of cells treated with 1 appeared to be apoptotic”. Moreover, the “cells with DNA in the sub G0 range” value with Jurkat cells [2] (Jurkat cells, 200 μM, day 4) is “substantial proportion”; in the experiment with Jurkat cells [2] (Jurkat cells, 200 μM, day 6), “almost complete”. Moreover, in the experiment on Jurkat cells [2] (Jurkat cells, 5 days), the “concentration above which non-viable cells (sub G0) accumulated” value was “exceeded 75 μM”. Besides, the “apoptosis versus cell cycle arrest (summary)” value in the experiment on Jurkat cells [2] (human cancer cells) is “efficiently induced apoptosis”. Moreover, the “fold lower concentration for endogenous p21WAF1/Cip1 gene activation than sodium n-butyrate (5)” value in the experiment with p21WAF1 is recorded as roughly 10 ×. The “endogenous p21WAF1 levels” value in the experiment on p21WAF1 (one week, 1 at 250 μM, 5 at 2.5 mM) is listed as “increased p21^WAF1 levels”. The “apoptosis by caspase-3 activity assay” value in the experiment on caspase-3 activity was “dose dependent apoptosis”. The “increase of caspase-3 activity” value in the experiment on caspase-3 activity (25 μM) is roughly 4 fold; in the experiment on caspase-3 activity (50 μM), roughly 8 fold; in the experiment with caspase-3 activity (100 μM), roughly 14 fold. In addition, in the experiment on HeLa cells (3 days, 1 at 250 μM, 5 at 5.0 mM), the “morphological changes / differentiation of HeLa cells” value is on record as “induced differentiation of HeLa cells; also recorded: growth of extended processes”.
